Measured values taken from patent publication US11583502B2, “Pharmaceutical compositions comprising a thyroid hormone beta agonist, method of use and method making thereof” (GANNEX PHARMA CO., LTD., priority 2020, dated 2023).

How the values were obtained:
[1] = Solubility of the compound of Formula (I) in media without surfactant; type: physicochemical
Excerpt: The compound of Formula (I), however, is a lipophilic drug that is highly insoluble in water. […] The very low solubility limits its use in research and development as a drug candidate.
For drugs with poor solubility, in vitro dissolution evaluation is a simple and effective method for predicting and comparing dissolution in vivo. In vitro dissolution evaluation is also an important criterion for screening prescription drugs for quality control. […] Therefore, in order to completely dissolve the compound in a conventional 900 ml medium for a 10 mg/unit dose formulation, it is necessary to increase the solubility of the compound to at least 11.11 μg/ml. It would be difficult to achieve such a target with conventional solubilization technology.

[2] = type: physicochemical; conditions: 3.5 hours

Structure (SMILES): Cc1cc(OC[P@@]2(=O)OCC[C@@H](c3cccc(Cl)c3)O2)cc(C)c1Cc1ccc(O)c(C(C)C)c1 [compound of Formula (I)]
- solubility ([1]; aqueous buffer, hydrochloric acid solution, buffer, and water without surfactant at 37° C. and pH 1.0˜9.0): < 0.5 ng/mL
- solubility ([1]; medium containing no surfactant): < 0.5 ng/mL
- drug undergoing degradation reactions [2]: 10.2%
